Measurements: patent US7868204B2, “Inhibitors of histone deacetylase” (MethylGene Inc., priority 2001, dated 2011)
Where two headings read alike, the source gives them in different places. Each block holds one compound with its values, some of them ahead of it.

Tests used:
HCT116 cells = experiment: MTT assay; assay type: cell-based; settings: Homo sapiens
Outline: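 Cells plated one day before dosing, then exposed to compound 72 h at 37 °C, 5% CO2. MTT at 0.5 mg/ml final for 4 h, solubilized in DMF/SDS buffer pH 4.7; OD converted to cell number from a standard growth curve.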

[1] = target: T1, cloned recombinant human HDAC-1 (Homo sapiens, UniProt Q13547); experiment: Human HDAC-1 enzyme inhibition, Assay 1 ([3H]-acetylated histone substrate, scintillation counting); assay type: biochemical; settings: read-out: Human HDAC-1 IC50
T1 construct: made in house; host or cells: Baculovirus insect cell expression system
T1 sequence (Q13547 whole entry): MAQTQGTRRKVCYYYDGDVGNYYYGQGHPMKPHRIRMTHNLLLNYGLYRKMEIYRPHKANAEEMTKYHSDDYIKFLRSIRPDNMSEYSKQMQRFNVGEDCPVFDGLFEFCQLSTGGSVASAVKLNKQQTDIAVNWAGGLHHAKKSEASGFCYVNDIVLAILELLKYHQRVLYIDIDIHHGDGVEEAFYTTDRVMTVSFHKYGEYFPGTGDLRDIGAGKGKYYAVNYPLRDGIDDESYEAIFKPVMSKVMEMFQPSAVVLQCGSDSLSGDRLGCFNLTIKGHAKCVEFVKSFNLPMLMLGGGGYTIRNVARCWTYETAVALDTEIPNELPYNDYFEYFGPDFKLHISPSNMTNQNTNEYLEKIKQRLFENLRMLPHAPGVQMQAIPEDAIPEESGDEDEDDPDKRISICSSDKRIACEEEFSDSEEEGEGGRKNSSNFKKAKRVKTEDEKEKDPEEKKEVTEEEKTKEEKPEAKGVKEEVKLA
Outline: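 Recombinant human HDAC-1 from baculovirus-infected insect cells, preincubated with compound 30 min at 4° C. before reaction. Released [3H]-acetic acid extracted with ethyl acetate and counted by scintillation. IC50 taken from dose-response curves as concentration giving half-maximal inhibition.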

[2] = tested on: HCT116 human colorectal carcinoma cells; experiment: Antitumor activity in HCT116 human colorectal tumor xenograft model in vivo; parameters: species or system BALB/c nude mice; settings: Mus musculus, ip, HCT 116 colorectal tumor model, read-out: % Inhibition of Tumor Growth; for inhibition in vivo at 40 mg/kg: 40 mg/kg i.p.; for inhibition in vivo at 20 mg/kg: 20 mg/kg i.p.
Protocol: Eight to ten week old female BALB/c nude mice (Taconic Labs, Great Barrington, N.Y.) were injected subcutaneously in the flank area with 2×10^6 preconditioned HCT116 human colorectal carcinoma cells. Preconditioning of these cells was done by a minimum of three consecutive tumor transplantations in the same strain of nude mice. Subsequently, tumor fragments of approximately 30 mgs were excised and implanted subcutaneously in mice, in the left flank area, under Forene anesthesia (Abbott Labs, Geneve, Switzerland). When the tumors reached a mean volume of 100 mm^3, the mice were treated intravenously, subcutaneously, or intraperitoneally by daily injection, with a solution of the histone deacetylase inhibitor in an appropriate vehicle, such as PBS, DMSO/water, or Tween 80/water, at a starting dose of 10 mg/kg. The optimal dose of the HDAC inhibitor was established by dose response experiments according to standard protocols. Tumor volume was calculated every second day post infusion according to standard methods (e.g., Meyer et al., Int. J. Cancer 43: 851-856 (1989)). […] FIGS. 2-10 show the results of additional compounds tested.

[3] = tested on: acetylated histone H-4 in T24 human bladder cancer cells; experiment: Histone H4 acetylation in whole cells by immunoblots; assay type: cell-based; settings: 16 h
Outline: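 T24 cells were treated with HDAC inhibitors for 16 h; […] total histone protein was resolved by SDS/PAGE and immunoblotted with polyclonal anti-acetylated H4 antibody. ECL detection, with signal quantified by densitometry.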

[4] = tested on: acetyl-H3 in T24 human bladder cancer cells; experiment: Histone H3 acetylation assay (anti-acetyl-H3, Amplex-Red fluorescence, normalized to Alamar Blue); assay type: cell-based; settings: T-24, 16 h incubation, read-out: H3 Ac t24
Protocol: T24 human bladder cancer cells growing in culture are incubated with HDAC inhibitors for 16 h. Cell viability is determined by adding 10 μl Alamar Blue (BioSource, DAL1100). Cells are washed once with PBS and fixed with methanol precooled to −20° C. for 10 min. The cells are then washed twice in PBS. The fixed cells are blocked with 50 μl of PBS+0.1% Triton X-100. Cells are probed with rabbit-anti-acetyl-H3 (Upstate #06-599) as the primary antibody and then with goat-anti-rabbit-HRP (Sigma #A-0545) as the secondary antibody. Fluorescence is read by fluorometer at Ex: 550, Em: 610, Cutoff: 590 (Auto PMT, 15 reads/well) after addition of Amplex-Red. Fluorescence signal is normalized against cell viability derived from Alamar Blue. Maximum acetylation signal of MS-275 (fluorescence unit) is measured as Emax.

HDAC-1 = HDAC-1 (Homo sapiens, UniProt Q13547); experiment: Human HDAC-1 enzyme inhibition, Assay 2 (Boc-Lys(Ac)-AMC, Fluor-de-Lys fluorescence; compounds 604-617); assay type: biochemical; settings: read-out: HDAC1 IC50
Chain of HDAC-1 (Q13547 whole entry): as above
Protocol: Assay 2. The following protocol was also used to assay the compounds of the invention. In the assay, the buffer used was 25 mM HEPES, pH 8.0, 137 mM NaCl, 2.7 mM […], 1 mM MgCl2 and the substrate was Boc-Lys(Ac)-AMC in a 50 mM stock solution in DMSO. The enzyme stock solution was 4.08 μg/mL in buffer. The compounds were pre-incubated (2 μl in DMSO diluted to 13 μl in buffer for transfer to assay plate) with enzyme (20 μl of 4.08 μg/ml) for 10 minutes at room temperature (35 μl pre-incubation volume). The mixture was pre-incubated for 5 minutes at room temperature. The reaction was started by bringing the temperature to 37° C. and adding […] substrate. Total reaction volume was 50 μl. […] A plate was incubated in the dark for 10 minutes at room temperature before reading (λEx=360 nm, λEm=470 nm, Cutoff filter at 435 nm). Assay 2 was used to measure HDAC activity of compounds 604-617 (Table 5). HDAC activity of the remaining compounds was measured by assay 1.

[5] = HCT-116, 72 h, Table 5a, HCT116 cells, 72 hours
[6] = T-24, Table 5a, read-out: H4Ac (T24) EC50
[7] = HCT-116, 72 h, Table 5E, HCT116 cells, 72 hours
[8] = T-24, Table 5E, read-out: H4 Ac (T24) EC50
[9] = HCT-116, 72 h, Table 5c, HCT116 cells, 72 hours
[10] = T-24, Table 5c, read-out: H4Ac (T24) EC50

IC50 (HCT116 cells; [5]): 700 nM | IC50 ([1]; Table 5a): 2000 nM | EC50 [3, 6]: 5000 nM
SMILES: Nc1nc(NCc2ccc(C(=O)Nc3ccccc3N)cc2)nc(N2CCOCC2)n1 [Cpd 9, 4-[(4-amino-6-morpholin-4-yl-[1,3,5]-triazin-2-ylamino)-methyl]-N-(2-amino-phenyl)-benzamide]
inhibition in vivo at 40 mg/kg [2]: 51%

IC50 (HCT116 cells; [5]): 200 nM | IC50 ([1]; Table 5a): 500 nM | EC50 [3, 6]: 3000 nM
SMILES: Nc1nc(NCc2ccc(C(=O)Nc3ccccc3N)cc2)nc(N2CCCCC2)n1 [Cpd 15, N-(2-amino-phenyl)-4-[(4-amino-6-piperidin-1-yl [1,3,5]-triazin-2-ylamino)-methyl]-benzamide]
inhibition in vivo at 40 mg/kg [2]: 26%

IC50 (HCT116 cells; [5]): 400 nM | IC50 ([1]; Table 5a): 1000 nM | EC50 [3, 6]: 1000 nM
SMILES: Nc1nc(NCc2ccc(C(=O)Nc3ccccc3N)cc2)nc(NC2CCCC2)n1 [Cpd 16]
inhibition in vivo at 40 mg/kg [2]: 50%

IC50 (HCT116 cells; [7]): 1000 nM | IC50 ([1]; Table 5E): 2000 nM | EC50 [3, 8]: 5000 nM
SMILES: COc1ccc(CNc2ccc3cc(C(=O)Nc4ccccc4N)ccc3n2)cc1 [Cpd 87]
inhibition in vivo at 40 mg/kg [2]: 30%

IC50 (HCT116 cells; [9]): 2000 nM | IC50 ([1]; Table 5c): 400 nM | EC50 [3, 10]: 15000 nM
SMILES: Nc1ccccc1NC(=O)/C=C/c1ccc(NCc2cccc(OC(F)(F)F)c2)nc1 [Cpd 98, N-(2-aminophenyl)-3-[6-(3-trifluoromethoxy-benzylamino)-pyridin-3-yl]-acrylamide]
inhibition in vivo at 20 mg/kg [2]: 52%

IC50 (HCT116 cells; [9]): 2000 nM | EC50 [3, 10]: 1000 nM
SMILES: COc1cc(NCc2ccc(/C=C/C(=O)Nc3ccccc3N)cc2)cc(OC)c1OC [Cpd 106, N-(2-aminophenyl)-3-{4-[(3,4,5-trimethoxy-phenylamino)-methyl]-phenyl}-acrylamide]
inhibition in vivo at 20 mg/kg [2]: 80%

IC50 (HCT116 cells; [7]): 200 nM | EC50 [3, 8]: 1000 nM
SMILES: Nc1ccccc1NC(=O)c1ccc(CSc2nc3ccccc3[nH]2)cc1 [Cpd 126, N-(2-Amino-phenyl)-4-(1H-benzimidazol-2-ylsulfanylmethyl)-benzamide]
inhibition in vivo at 40 mg/kg [2]: 62%

IC50 (HCT116 cells; [7]): 400 nM | IC50 ([1]; Table 5E): 300 nM | EC50 [3, 8]: < 1000 nM
SMILES: Nc1ccccc1NC(=O)c1ccc(Cn2cnc3ccccc3c2=O)cc1 [Cpd 154, N-(2-Amino-phenyl)-4-(4-oxo-4H-quinazolin-3-ylmethyl)-benzamide]
inhibition in vivo at 20 mg/kg [2]: 23%

IC50 (HCT116 cells; [7]): 600 nM | EC50 [3, 8]: 1000 nM
SMILES: Nc1ccccc1NC(=O)c1ccc(Cn2c(=O)[nH]c3ccccc3c2=O)cc1 [Cpd 157, N-(2-Amino-phenyl)-4-(2,4-dioxo-1,4-dihydro-2H-quinazolin-3-ylmethyl)-benzamide]
inhibition in vivo at 20 mg/kg [2]: 66%

IC50 (HCT116 cells; [7]): 800 nM | EC50 [3, 8]: 2000 nM
SMILES: COc1ccc(CCNc2ccc(C(=O)Nc3ccccc3N)cn2)cc1 [Cpd 168]
inhibition in vivo at 40 mg/kg [2]: 26%

IC50 (HCT116 cells; HCT-116, HCT116 cells): 800 nM | IC50 (HDAC-1): 60 nM
SMILES: Nc1ccccc1NC(=O)c1ccc(N2CC[C@H](Nc3cccnc3)C2)cc1 [compound 604, (S)-N-(2-aminophenyl)-4-(3-(pyridin-3-ylamino)pyrrolidin-1-yl)benzamide]
EC50 [4]: 8000 nM

IC50 (HCT116 cells; HCT-116, HCT116 cells): 3000 nM | IC50 (HDAC-1): 300 nM
SMILES: Nc1ccccc1NC(=O)c1ccc(N2CC[C@@H](Nc3cccnc3)C2)cc1 [compound 605, (R)-N-(2-aminophenyl)-4-(3-(pyridin-3-ylamino)pyrrolidin-1-yl)benzamide]
EC50 [4]: 12000 nM

IC50 (HCT116 cells; HCT-116, HCT116 cells): 700 nM | IC50 (HDAC-1): 400 nM
SMILES: Nc1ccccc1NC(=O)c1ccc(N2CC[C@H](Oc3cccnc3)C2)cc1 [compound 606, (S)-N-(2-aminophenyl)-4-(3-(pyridin-3-yloxy)pyrrolidin-1-yl)benzamide]
EC50 [4]: 7000 nM

IC50 (HCT116 cells; HCT-116, HCT116 cells): 300 nM | IC50 (HDAC-1): 200 nM
SMILES: Nc1ccccc1NC(=O)c1ccc(N2CC[C@H](Nc3ccccc3)C2)cc1 [compound 608, (S)-N-(2-aminophenyl)-4-(3-(phenylamino)pyrrolidin-1-yl)benzamide]
EC50 [4]: 200 nM

IC50 (HCT116 cells; HCT-116, HCT116 cells): 300 nM | IC50 (HDAC-1): 90 nM
SMILES: COc1cc(O[C@H]2CCN(c3ccc(C(=O)Nc4ccccc4N)cc3)C2)cc(OC)c1OC [compound 613, (S)-N-(2-aminophenyl)-4-(3-(3,4,5-trimethoxyphenoxy)pyrrolidin-1-yl)benzamide]
EC50 [4]: 1000 nM

IC50 (HCT116 cells; HCT-116, HCT116 cells): 8000 nM | IC50 (HDAC-1): 100 nM
SMILES: Nc1ccccc1NC(=O)c1ccc(N2CC[C@H](Oc3ccc4c(c3)OCO4)C2)cc1 [compound 614, (S)-N-(2-aminophenyl)-4-(3-(benzo[d][1,3]dioxol-5-yloxy)pyrrolidin-1-yl)benzamide]
EC50 [4]: 1000 nM

IC50 (HCT116 cells; HCT-116, HCT116 cells): 700 nM | IC50 (HDAC-1): 230 nM
SMILES: Nc1ccccc1NC(=O)c1ccc(N2CC[C@H](Sc3ccccn3)C2)cc1 [compound 617, (S)-N-(2-aminophenyl)-4-(3-(pyridin-2-ylthio)pyrrolidin-1-yl)benzamide]
EC50 [4]: 2000 nM
